Laboratory results reported in PMC11665553, “12-Lipoxygenase inhibition delays onset of autoimmune diabetes in human gene replacement mice” (JCI Insight, 2024).
Several values for one entry are separate records, joined by “and”; a condition that tells them apart may be missing. Identical values can stand only once.

Tests used:
NOD.hALOX12 mice [1] = assay: Flow cytometry of pancreatic lymph nodes and spleen of NOD.hALOX12 mice; type: in vivo, mouse; design: FoxP3 / CD4 / IFNg / IL-17a: unit not given here; details: for CD4 / FoxP3 / IFNg / IL-17a: flow cytometry, individual animals, listed as VLX
Protocol: Spleen and pLNs were harvested, homogenized, and passed through a 70 μm strainer to obtain a single-cell suspension. Cell pellets were resuspended in red blood cell (RBC) lysing solution to remove red blood cells. […] The following surface markers were used — CD4-FITC (BioLegend, 100510; 1:100), CD8–PerCP-Cy5.5 (BioLegend, 100734; 1:100), and CD19-AF700 (BioLegend, 152414; 1:100). Following incubation of surface antibodies, cells were washed with stain buffer and then permeabilized using fix/perm buffer (BD Biosciences, 554722) before intracellular staining. The following intracellular antibodies from BD Biosciences were used: FoxP3-AF647 (560401; 1:100), IFN-γ–PE (554412; 1:50), and IL-17a–APCCY7 (560821; 1:50). Cells were analyzed on the Attune NxT Flow Cytometer (Thermo Fisher Scientific). Data were analyzed by FlowJo software (BD Biosciences).

NOD.hALOX12 mice [2] = assay: Diabetes treatment (reversal) in diabetic female NOD.hALOX12 mice; type: in vivo, mouse; details: 30 mg/kg/day p.o. up to 6 weeks
Protocol: Mice were followed for diabetes development (blood glucose ≥250 mg/dL on 2 consecutive days) until 25 weeks of age (Figure 3A).
For diabetes treatment studies, female NOD.hALOX12 mice were followed for random-fed blood glucose from 12 to 20 weeks of age.

NOD.hALOX12 mice [3] = assay: Oxidative stress immunostaining (4-HNE, GPx1) in NOD.hALOX12 mice; type: in vivo, mouse
From the text: We, therefore, immunostained pancreatic sections for markers of cell death and proliferation in the islet.
For immunofluorescent staining, pancreatic sections were stained with the following antibodies: anti-insulin (Dako, IR002; 1:4), anti-glucagon (Santa Cruz Biotechnology, sc514592; 1:50), anti-B220 (BioLegend, 03201; 1:100), anti-CD3 (Abcam, ab16669; 1:200), anti-PCNA (Santa Cruz Biotechnology, sc-7907; 1:100), anti–4-HNE (Abcam, ab46545; 1:200), and anti-GPx1 (Santa Cruz Biotechnology, sc-22145; 1:100). Highly cross-adsorbed Alexa Fluor secondary antibodies (Thermo Fisher Scientific) were used at a dilution of 1:500. Tissue sections were stained with DAPI (Thermo Fisher Scientific) to label cell nuclei. The Nikon A1 confocal microscopy was used to capture images. CellProfiler v4.1 software (https://cellprofiler.org/) was used for image analysis.

[4] = system: BMDMs from NOD.hALOX12 mice; assay: RNA sequencing of M0 and M1-like polarized BMDMs; type: cell-based, mouse
From the text: BMDMs were unpolarized (M0) or polarized to an M1-like state (with lipopolysaccharide and IFN-γ) to mimic the inflammatory state that might be observed during T1D pathogenesis.
These common genes mapped to pathways related to cytokine-mediated signaling, T cell activation, and antigen processing and presentation (Supplemental Figure 3B). […] The 507 genes altered with vehicle treatment mapped to GO pathways related to the M1 polarization phenotype (myeloid cell differentiation, immune response, response to cytokines) and pathways related to oxidative stress (cell redox homeostasis, response to hydrogen peroxides) (Figure 5E). These pathways were not identified in the genes that were differentially expressed during VLX-1005 treatment.
BMDMs were isolated from 8-week-old NOD.hALOX12 mice as described previously ([2]). The isolated BMDMs were cultured for 7 days in complete medium (RPMI 1640 containing 10% FBS, 10 mM HEPES, and 100 U/mL penicillin/streptomycin) supplemented with 10 ng/mL M-CSF. […] After 1-hour pretreatment, the BMDMs were further stimulated with 10 ng/mL LPS and 25 ng/mL IFN-γ for 18 hours for M1-like polarization. RNA was isolated and used for sequencing.
RNA extraction was performed using RLT Buffer, according to the manufacturer’s instructions (Qiagen). Samples were submitted for library generation and sequencing by the University of Chicago sequencing core using a NovaSeq 6000 (Illumina). Data were analyzed using Galaxy (https://usegalaxy.org/). Reads were aligned to the Mus musculus genome build mm10 using HISAT2 (https://daehwankimlab.github.io/hisat2/). Individual sample reads were quantified using HTseq-count and normalized using DESeq2 (https://bioconductor.org/packages/release/bioc/html/DESeq2.html). DEseq2 was also used to calculate FCs and P values and to perform optional covariate correction. GO was used for pathway analysis.

NOD.hALOX12 mice [5] = assay: NanoString spatial proteomics of insulitic and insulin-positive areas in NOD.hALOX12 mice; type: in vivo, mouse; details: Insulitic Area; Fig 2F source data, individual values
B6.hALOX12 mice = assay: Multiple low-dose STZ-induced diabetes in B6.hALOX12 mice (random-fed blood glucose, GTT, β cell mass); details: for Blood glucose (Fig 1H) / GTT blood glucose (Fig 1I): individual animals; for Random-fed blood glucose (Fig 1E) / GTT blood glucose (Fig 1F): hAlox12 mice, listed as ML355, 30 mg/kg; for Random-fed blood glucose (Fig 1E): 30 mg/kg i.p. + STZ
Protocol: Intraperitoneal GTTs (IPGTTs) were performed in mice after overnight fasting (16 hours). Mice were i.p. injected with glucose at a dose of 1 or 2 g/kg body weight and blood glucose levels were measured at specific time points: 0, 10, 20, 30, 60, 90, and 120 minutes after glucose injection using an AlphaTrak glucometer.
Random-fed glucose levels were measured by tail snip using a glucometer (AlphaTrak), and mice were followed for 20 days after STZ injections. IPGTT was performed on day 4 after STZ treatments after overnight fasting.

[6] = female NOD.hALOX12 mice, 30 mg/kg p.o., 4 weeks
[7] = female NOD.hALOX12 mice, 4 weeks of treatment
[8] = sheet Fig 4E, individual mice, listed as VLX
[9] = sheet Fig 5G, 4 replicates, listed as VLX
[10] = B6.hALOX12 mice, 30 mg/kg p.o., STZ

COc1cccc(CNc2ccc(S(=O)(=O)Nc3nc4ccccc4s3)cc2)c1O [VLX-1005]
CD4+Foxp3+ regulatory T cells in pancreatic lymph nodes (NOD.hALOX12 mice [1]; [6]): increase
Tregs in spleen (NOD.hALOX12 mice [1]; [6]): no changes
CD4 (NOD.hALOX12 mice [1]; sheet SFig 2C): 65.7 and 58.8 and 61.4 and 58 and 54.2
FoxP3 (NOD.hALOX12 mice [1]; sheet SFig 2C): 4.31 and 7.46 and 5.24 and 7.28 and 5.6
IFNg (NOD.hALOX12 mice [1]; sheet SFig 2C): 0.037 and 0.092 and 0.047 and 0.058 and 0.044
IL-17a (NOD.hALOX12 mice [1]; sheet SFig 2C): 2.96 and 5.74 and 6.17 and 6.96 and 7.02
CD4 (NOD.hALOX12 mice [1]; sheet SFig 2D): 46.2 and 45.1 and 46.1 and 45.5 and 43.7
FoxP3 (NOD.hALOX12 mice [1]; sheet SFig 2D): 8.7 and 7.15 and 4.07 and 12.1 and 9.49
IFNg (NOD.hALOX12 mice [1]; sheet SFig 2D): 0.36 and 0.33 and 0.39 and 0.29 and 0.4
IL-17a (NOD.hALOX12 mice [1]; sheet SFig 2D): 3.2
Blood glucose levels vs vehicle in established diabetes (NOD.hALOX12 mice [2]): relative reductions in blood glucose levels
Reversal of established diabetes (NOD.hALOX12 mice [2]): did not observe a reversal in diabetes
4-HNE immunostaining (oxidative stress marker) vs placebo (NOD.hALOX12 mice [3]; [7]): reduced immunostaining
GPx1 levels in β cells (NOD.hALOX12 mice [3]; [7]): increase
4-hne (NOD.hALOX12 mice [3]; [8]): 300.045 and 304.934 and 308.173 and 287.237 and 299.135
GPx1 (NOD.hALOX12 mice [3]; [8]): 416.4 and 443.77 and 439.26 and 458.35
Magnitude of changes of IFN pathway genes vs vehicle in M1-like BMDMs ([4]; 10 μM, P < 0.05 by t test): augmented significantly
Adar expression (heat map value) [4, 9]: 1.762 and 1.682 and 1.654 and 1.2
Arrdc4 expression (heat map value) [4, 9]: 1.769 and 1.684 and 1.6721 and 1.333
Ddx3x expression (heat map value) [4, 9]: 0.9319 and 0.8926 and 0.8886 and 0.8518
Dhx58 expression (heat map value) [4, 9]: 2.321 and 1.936 and 1.912 and 1.006
Gigyf2 expression (heat map value) [4, 9]: 0.9359 and 0.7566 and 0.751 and 0.4484
Kat5 expression (heat map value) [4, 9]: 0.9038 and 0.7157 and 0.4242 (2×)
Lrrfip2 expression (heat map value) [4, 9]: 1.898 and 1.808 and 1.658 and 1.413
Mark4 expression (heat map value) [4, 9]: 1.966 and 1.936 and 1.657 and 1.006
Mmp12 expression (heat map value) [4, 9]: 0.8105 and 0.4921 (3×)
Ninj1 expression (heat map value) [4, 9]: 1.769 and 1.701 and 1.685 and 1.401
Nlrp3 expression (heat map value) [4, 9]: 2.077 and 1.964 and 1.718 and 1.337
Nono expression (heat map value) [4, 9]: 1.2 and 1.151 and 1.126 and 1.119
Oas1e expression (heat map value) [4, 9]: 2.321 and 1.949 and 1.675 and 1.657
Pou2f2 expression (heat map value) [4, 9]: 1.6038 and 1.537 and 1.347 and 1.324
Riok3 expression (heat map value) [4, 9]: 1.411 and 1.279 and 1.172 and 1.109
Srebf1 expression (heat map value) [4, 9]: 0.9499 and 0.826 and 0.6628 and 0.3958
Tank expression (heat map value) [4, 9]: 2.305 and 1.708 and 1.675 and 0.8815
Tlr6 expression (heat map value) [4, 9]: 2.235 and 2.002 and 1.489 and 1.453
Tmem126a expression (heat map value) [4, 9]: 0.7845 and 0.7743 and 0.7659 and 0.465
Tomm70a expression (heat map value) [4, 9]: 1.572 and 1.428 and 1.219 and 1.127
Ttll12 expression (heat map value) [4, 9]: 2.1636 and 1.773 and 1.7 and 1.671
Ube2k expression (heat map value) [4, 9]: 1.475 and 1.413 and 1.263 and 1.205
CD19 (NOD.hALOX12 mice [5]): 0.1873 and -0.4029 and 0.4865 and 2.831 and -0.3159 and 0.2718 and 0.8536 and 0.6292 and 1.249 and 2.864
Glucose tolerance vs vehicle (B6.hALOX12 mice; [10]): significantly improved glucose tolerance
Random-fed blood glucose levels vs vehicle (B6.hALOX12 mice; [10]): lower random-fed blood glucose levels
β cell mass at end of study vs vehicle (B6.hALOX12 mice; [10]): greater β cell mass
GTT AUC (Fig 1J) (B6.hALOX12 mice; B6.hALOX12 mice, 30 mg/kg p.o., day 4 after STZ, individual mice, 30 mg/kg): 38575 and 27605 and 37915 and 32740 and 28655 and 39615
β cell mass (Fig 1K) (B6.hALOX12 mice; B6.hALOX12 mice, 30 mg/kg p.o., day 26 after STZ, individual mice, listed as VLX, 30 mg/kg): 0.4287 and 0.8456 and 0.5623 and 0.6492 and 1.024
Glucose tolerance (GTT) (B6.hALOX12 mice; B6.hALOX12 vs WT C57BL/6J mice, both 30 mg/kg i.p., after STZ): improved glucose tolerance
Blood glucose (Fig 1H) (B6.hALOX12 mice; day 1): 293 and 265 and 377 and 281 and 389 and 367
Blood glucose (Fig 1H) (B6.hALOX12 mice; day 4): 209 and 312 and 289 and 205 and 311 and 272
Blood glucose (Fig 1H) (B6.hALOX12 mice; day 8): 346 and 273 and 297 and 307 and 219 and 303
Blood glucose (Fig 1H) (B6.hALOX12 mice; day 11): 435 and 460 and 385 and 378 and 441 and 298
Blood glucose (Fig 1H) (B6.hALOX12 mice; day 16): 427 and 543 and 470 and 301 and 405 and 380
Blood glucose (Fig 1H) (B6.hALOX12 mice; day 18): 571 and 573 and 426 and 374 and 417 and 346
Blood glucose (Fig 1H) (B6.hALOX12 mice; day 23): 474 and 543 and 550 and 331 and 533 and 356
Blood glucose (Fig 1H) (B6.hALOX12 mice; day 25): 630 and 501 and 416 and 359 and 457 and 307
Blood glucose (Fig 1H) (B6.hALOX12 mice; day 28): 426 and 551 and 530 and 363 and 483 and 470
Blood glucose (Fig 1H) (B6.hALOX12 mice; day -3): 296 and 262 and 381 and 299 and 367 and 314
GTT AUC (Fig 1G) (B6.hALOX12 mice; hALOX12 mice, 30 mg/kg i.p., day 4 after STZ, individual mice, 30 mg/kg): 24945 and 29635 and 27915 and 36735
Random-fed blood glucose (Fig 1E) (B6.hALOX12 mice; day 0, individual mice): 184 and 194 and 153 and 159
Random-fed blood glucose (Fig 1E) (B6.hALOX12 mice; day 5, individual mice): 174 and 179 and 181 and 131
Random-fed blood glucose (Fig 1E) (B6.hALOX12 mice; day 10, individual mice): 195 and 201 and 210 and 180
Random-fed blood glucose (Fig 1E) (B6.hALOX12 mice; day 15, individual mice): 167 (2×) and 210 and 214
Random-fed blood glucose (Fig 1E) (B6.hALOX12 mice; day 22, individual mice): 193 and 223 and 208 and 188
Random-fed blood glucose (Fig 1E) (B6.hALOX12 mice; day 27, individual mice): 216 and 217 and 226 and 193
Random-fed blood glucose (Fig 1E) (B6.hALOX12 mice; day -5, individual mice): 194 and 201 and 167 and 185
GTT blood glucose (Fig 1F) (B6.hALOX12 mice; 30 mg/kg i.p., day 4 after STZ, 0 min after glucose, individual mice): 184 and 132 and 122 and 134
GTT blood glucose (Fig 1F) (B6.hALOX12 mice; 30 mg/kg i.p., day 4 after STZ, 10 min after glucose, individual mice): 401 and 364 and 354 and 369
GTT blood glucose (Fig 1F) (B6.hALOX12 mice; 30 mg/kg i.p., day 4 after STZ, 20 min after glucose, individual mice): 610 and 557 and 487 and 467
GTT blood glucose (Fig 1F) (B6.hALOX12 mice; 30 mg/kg i.p., day 4 after STZ, 30 min after glucose, individual mice): 512 and 597 and 398 and 458
GTT blood glucose (Fig 1F) (B6.hALOX12 mice; 30 mg/kg i.p., day 4 after STZ, 60 min after glucose, individual mice): 361 and 446 and 310 and 375
GTT blood glucose (Fig 1F) (B6.hALOX12 mice; 30 mg/kg i.p., day 4 after STZ, 90 min after glucose, individual mice): 221 and 387 and 284 and 306
GTT blood glucose (Fig 1F) (B6.hALOX12 mice; 30 mg/kg i.p., day 4 after STZ, 120 min after glucose, individual mice): 159 and 209 and 223 and 281
Protection from STZ-induced diabetes (B6.hALOX12 mice; male B6.hALOX12 mice, 30 mg/kg i.p. daily peri-STZ): complete protection from STZ-induced diabetes
GTT blood glucose (Fig 1I) (B6.hALOX12 mice; time 0): 403 and 326 and 234 and 245 and 279 and 370
GTT blood glucose (Fig 1I) (B6.hALOX12 mice; time 10): 585 and 462 (2×) and 543 and 359 and 482
GTT blood glucose (Fig 1I) (B6.hALOX12 mice; time 20): 636 and 668 and 606 and 558 and 520 and 577
GTT blood glucose (Fig 1I) (B6.hALOX12 mice; time 30): 577 and 520 and 660 and 662 and 560 and 646
GTT blood glucose (Fig 1I) (B6.hALOX12 mice; time 60): 488 and 436 and 530 and 581 and 420 and 589
GTT blood glucose (Fig 1I) (B6.hALOX12 mice; time 90): 345 and 329 and 461 and 457 and 365 and 408
GTT blood glucose (Fig 1I) (B6.hALOX12 mice; time 120): 239 and 265 and 375 and 360 and 216 and 283
